Assay [1] deals with short c-Myc iM-forming sequence. Particulars: cited from earlier work. As for the experimental part: To support the experiments on the stabilizing properties of the peptides, we also performed direct binding measurements of Pep-VSE and Pep-PTN using UV titrations. Binding curves are provided in Supplementary Fig. S11, and Kds are in Table 2. These experiments reveal tight binding of both PTN (0.93 ± 0.08 µM) and VSE (0.43 ± 0.03 µM) compared to other DNA structures. Although binding was detected for both peptides against c-MycG52, the G4-forming sequence in the complementary strand, there was no plateau at the concentrations examined. So, we have estimated a lower limit of 50 µM as the potent ...

Another assay deals with c-MycC52 iM. The assay can be described thus: Fluorescent indicator displacement (FID) assay with Thiazole Orange. The assay is classed as binding. The settings on record: 1 µM c-MycC52, 2 µM TO, 10 mM sodium cacodylate pH 6.6, peptides 25-200 µM, n = 3. As for the experimental part: Fluorescent indicator displacement (FID) experiments used in this publication are based on the first FID assay developed for iM DNA [35]. The FID experiments were performed on a BMG CLARIOstar plate reader using 96-well, solid black flat-bottom plates. Thiazole Orange (TO) was the indicator, and the stock solution was prepared at 10 mM in DMSO. The TO stock was diluted into the appropriate buffer to 2 µM. Each well received 9 µl of the 2 µM TO solution, was excited at 430 nm, and fluorescence emission at 450 nm was measured; this was normalized to 0% to account for background fluorescence. One microlitre of […] DNA was added to each well and shaken in the plate reader for 30 s using double orbital shaking at 700 rpm and left for 10 min to equilibrate. Following equilibration, fluorescence emission was measured and normalized to 100% representing maximum fluorescence. Peptides were titrated starting at 25 µM, with 0.9 µl additions into each well in triplicate, until a final concentration of 200 µM was reached, and fluorescence emission was measured after each addition. Fluorescence emission for each well was normalized between 0% and 100%, which was taken away from 100 to give the percentage of displacement. The data were analyzed in Origin data analysis software and fitted with a hyperbolic dose–response curve from which the DC50 value was interpolated.
The relative binding of the five peptide ligands to the folded c-MycC52 iM was assessed via a FID assay using TO (Fig. 1). These experiments were performed in 10 mM sodium cacodylate at pH 6.6, the transitional pH of the c-Myc iM-forming sequence. As iM-formation is reduced at higher pH and higher ionic strength, additional stabilizing cations were avoided to allow the highest proportion of iM formation at the highest pH, to represent as close to physiological pH conditions as possible.
Figure 1. Concentration-dependent interaction of peptides with c-MycC52 iM determined via FID assay. The assay was performed with 1 µM c-MycC52 in 10 mM sodium cacodylate, pH 6.6, in the presence of 2 µM TO. Peptide ligands were added in increments of 25 µM up to a final concentration of 200 µM. Data are presented as mean ± SD (n = 3) and fitted using a Hill-Slope dose–response curve.

The subject of the next assay is dsDNA (DS). The assay can be described thus: CD melting of double-stranded DNA. It is filed as binding. Particulars: 10 µM DS, 10 mM NaCaco pH 6.6, 10 molar eqv. peptide vs buffer; n=2. As for the experimental part: Circular Dichroism (CD) melting experiments were performed in a Jasco J-1500 spectropolarimeter with 10 µM DNA samples in 10 mM sodium cacodylate buffer at pH 6.6 using a 1 mm path length quartz cuvette. […] The samples were kept at 5°C for 5 min before starting the melt, with a temperature increase of 1°C/min, a 0.5°C data interval, and a 60-s holding time at each target temperature. Four scans were accumulated data pitch of 0.5 nm, a scanning speed of 200 nm/min, 1 s response time, 2 nm bandwidth, and 200 mdeg sensitivity. Furthermore, two CD melting experiment repeats were performed recording C-rich c-Myc at 288 and 320 nm, G-rich c-Myc at 264 and 320 nm, and dsDNA at 253 and 320 nm with the settings as described for full spectrum measurements. Data were zero corrected to 320 nm and baseline drift. The melting temperature (TM) was concluded using the Boltzmann or biphasic fitting curve on the folded fraction data using GraphPad Prism version 10.1.2. Data were processed as mean ± SEM (n = 4) and one-way ANOVA followed by Bonferroni post-hoc test to determine significant changes between peptides and controls.

As a reminder, the Kd is the constant that tells how readily two partners part at equilibrium. Take `NC[C@H]1O[C@H](O[C@H]2[C@H](O)[C@@H](O[C@H]3O[C@H](CO)[C@@H](O)[C@H](N)[C@H]3O)[C@H](N)C[C@@H]2N)[C@H](N)C[C@@H]1O` [tobramycin]: in assay [1], the Kd was 13 µM.
“EIEY TDHMK ELG [Pep-EIE, linear 12-mer peptide selected by phage display against c-MycC52; N-terminal acetylation, C-terminal amidation]”: the “relative binding affinity ranking (TO displacement)” value (“relative binding affinity ranking” below) with c-MycC52 iM was “SLC > PTN > VSE > EIE > RVS”.
For “RVS TDHMK GRGG [Pep-RVS, linear 12-mer peptide selected by phage display against c-MycC52; N-terminal acetylation, C-terminal amidation]”, the “relative binding affinity ranking” value in the assay on c-MycC52 iM is recorded as “SLC > PTN > VSE > EIE > RVS”.
Turning to “SLCDIIRIEKVR [Pep-SLC, linear 12-mer peptide selected by phage display against c-MycC52; N-terminal acetylation, C-terminal amidation]”, the “relative binding affinity ranking” value in the assay with c-MycC52 iM is “SLC > PTN > VSE > EIE > RVS”. Also, the “destabilization of dsDNA (decrease in TM)” value with dsDNA (DS) amounted to 5 °C.

These data come from paper PMC12596500, “Affinity-selected peptide ligands specifically bind i-motif DNA and modulate c-Myc gene expression” (Nucleic Acids Research, 2025).
